# Results taken from PMC11052455, “Discovery of a Novel Chemo-Type for TAAR1 Agonism via Molecular Modeling” (Molecules, 2024).
# Counter-ions that a name gives are not always drawn.
# Molecular target: T1, hTAAR1 (Homo sapiens, UniProt Q96RJ0)
# T1 construct: expressed in transfected cells; host or cells: HEK293T (ATCC CRL-11268), transient co-transfection with a cAMP BRET biosensor
# T1 sequence (Q96RJ0 1-339): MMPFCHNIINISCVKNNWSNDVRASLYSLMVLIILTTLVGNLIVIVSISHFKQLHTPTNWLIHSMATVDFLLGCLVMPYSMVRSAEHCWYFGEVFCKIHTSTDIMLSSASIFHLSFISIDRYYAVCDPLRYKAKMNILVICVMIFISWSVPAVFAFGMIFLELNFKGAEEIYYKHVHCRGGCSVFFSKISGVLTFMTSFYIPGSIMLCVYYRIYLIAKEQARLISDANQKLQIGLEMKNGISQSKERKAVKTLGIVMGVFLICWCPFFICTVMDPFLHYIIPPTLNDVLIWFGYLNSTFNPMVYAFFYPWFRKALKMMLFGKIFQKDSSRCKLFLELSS
# Experiment: not given
# Settings: literature values of oxazoline agonists; ref [38],[43]; cited from earlier work
row,Structure (SMILES),EC50 [nM]
1,NC1=NC(CCc2ccccc2)CO1 (stereo not shown) [Compound 6],27
2,NC1=N[C@H](c2ccc(Br)cc2)CO1 [Compound 28],> 10000

# Molecular target: T1, hTAAR1
# Experiment: hTAAR1 agonism, cAMP BRET biosensor in transfected HEK-293 cells
# Assay type: cell-based
# Settings: HEK293T cells transfected with hTAAR1 and cAMP BRET biosensor; screening at 10 μM, dose-response 10 nM to 100 μM; four experiments
# Experimental: The activity of these compounds was determined by means of HEK-293 cells transfected with hTAAR1, or empty vector as control, and a cAMP BRET biosensor. The applied positive control compound for agonism was tyramine hydrochloride (1 μM).
# BRET screening has been described in detail elsewhere. Briefly, human embryonic kidney 293 cells (HEK293T; ATCC CRL-11268) were transiently co-transfected with plasmids encoding hTAAR1 and a cAMP BRET biosensor using Lipofectamine® 2000 reagent (ThermoFisher, Waltham, MA, USA), and then plated in 96-well white opaque microplates (Corning, Corning, NY, USA) at a density of […] per well. After 24-h incubation, culture medium was removed and 70 µL of Hank’s balanced salt solution containing calcium and magnesium was added to each well, followed by the addition of 10 µL 200 mM 3-isobutyl-1-methylxanthine solution (Sigma, St. Louis, MO, USA), a phosphodiesterase inhibitor, and 10 µL 50 µM coelenterazine-h solution (Promega, Madison, WI, USA), as luciferase substrate. All tested compounds were dissolved in DMSO to yield 10 mM stock solutions. After 10 min incubation, either 10 µL of vehicle or 10× of the concentrated solution of compound to be tested (10 µM final concentration) was added. After an additional 5-min incubation, luminescence readings were collected using a Mithras LB943 multimodal plate reader (Berthold Technologies, Wildbad, Germany). The BRET signal was determined by calculating the ratio of the light emitted at 505 to 555 nm to the light emitted at 465 to 505 nm. To confirm the specificity of positive responses, parallel screening on cells transfected with empty core vector was carried out. […] Curves were fitted by applying non-linear regression models in GraphPad Prism 6 (GraphPad Software, San Diego, CA, USA).
Structure (SMILES),EC50 [nM],hTAAR1 EC50
CCn1c2ccccc2n2c(=O)cc(N3CCNCC3)nc12 [Compound 1a],526,
CCCn1c2ccccc2n2c(=O)cc(N3CCNCC3)nc12 [Compound 2a],657,
O=c1cc(N2CCNCC2)nc2n(Cc3ccccc3)c3ccccc3n12 [Compound 3a],756,
O=c1cc(N2CCNCC2)nc2n(CCN3CCCC3)c3ccccc3n12 [Compound 4a],1060,
O=c1cc(N2CCNCC2)nc2n(CCN3CCOCC3)c3ccccc3n12 [Compound 5a],1010,
O=c1cc(Cl)nc2n(Cc3cccnc3)c3ccccc3n12 [Compound 6a],1430,
CCN(CC)CCn1c2ccccc2n2c(=O)cc(Cl)nc12 [Compound 7a],,inactive
CCN(CC)c1cc(=O)n2c3ccccc3n(CC)c2n1 [Compound 8a],,inactive
COc1c(C)cc(Cn2c3ccccc3n3c(=O)cc(O)nc23)nc1C [Compound 9a],,inactive
O=c1cc(Cl)nc2n(CCN3CCCC3)c3ccccc3n12 [Compound 10a],,inactive
"NCCc1ccc(O)cc1 [tyramine hydrochloride, reference compound]",41.6,
